Reference: US12661358B2, “Purine derivatives as drugs for the treatment of neonatal hypoxia-ischemia brain injury and related diseases” (COMMISSARIAT A L'ENERGIE ATOMIQUE ET AUX ENERGIES …, priority 2020, dated 2026)

Legend:
[1] = tested on: primary rat cell-based BBB (blood-brain barrier) model; assay: Permeability of 14C-sucrose on primary rat cell-based BBB model after LPS challenge; conditions: LPS 10 ng/mL; compound at 0.1 μM and 1 μM; figure axis in 10^−6 cm·s^−1
Method: FIG. 2A: The permeability of radiolabelled sucrose, a permeability marker, was studied on a primary rat cell-based BBB (blood-brain barrier) model after lipopolysaccharide (LPS) challenge.
First graph (left): y-axis: permeability of ^14C-sucrose through the BBB (10^−6 cm·s^−1); x-axis (from left to right): BBB control (negative control); BBB+LPS (10 ng/mL) (positive control); BBB+Compound 13 (0.1 μM); BBB+LPS+Compound 13 (0.1 μM); BBB+Compound 13 (1 μM); BBB+LPS+Compound 13 (1 μM).
Second graph (right): y-axis: permeability of ^14C-sucrose through the BBB (10^−6 cm·s^−1); x-axis (from left to right): BBB control (negative control); BBB+LPS (10 ng/mL) (positive control); BBB+Aftin-5 (0.1 μM); BBB+LPS+Aftin-5 (0.1 μM); BBB+Aftin-5 (1 μM); BBB+LPS+Aftin-5 (1 μM).
The permeability of radiolabelled sucrose (^14C-sucrose), a permeability marker, was studied on a primary rat cell-based BBB (blood-brain barrier) model. Permeability was measured in 10^−6 cm·s^−1. ^14C-sucrose is a small molecular weight marker of 342 Da that tends to reflect paracellular disruption.
To induce increased BBB permeability, lipopolysaccharide (LPS) was injected. LPS induces increased BBB permeability by stimulating formation and release of cytokines and other molecules.
Two different Aftin compounds were tested in this example: […]. […]

[2] = tested on: HI (Hypoxia-Ischemia) injury; assay: Rice-Vannucci neonatal HI model, infarct measurement; assay type: in vivo, Wistar rats; conditions: P7 rats, 30 mg/kg IP immediately after hypoxia, 24 h and 48 h; read 72 h after HI (P10); compared to HI+PL; males and females
Source text: Subjects were Wistar rats born from time-mated dams obtain from Charles River Laboratory (Wilmington, […], USA).
Post-natal day 7 (P7) (CNS maturation corresponding to 32-34 weeks of gestation in human) rats were assigned to 3 groups: sham, HI+PL or HI+Compound 13.
In the sham group no hypoxia-ischemia was induced in the rats. This group served as a control group.
In the HI+PL group, where PL stands for placebo, hypoxia-ischemia was induced in the rats. The rats were then further administered a saline vehicle, which served as the placebo.
In the HI+Compound 13 group, hypoxia-ischemia was induced in the rats. The rats were then further administered a dose of Compound 13, which is a compound of formula (I) according to the invention.
The Rice-Vanucci method was used to induce the HI injury (Rice J E et al., 1981) in groups HI+PL and HI+Compound 13.
In summary, each animal from all three groups was anesthetized using 3-4% isoflurane and total absence of leg withdrawal reflexes was verified prior to proceeding to surgery. […]
The infarct was calculated as a percentage of the ratio of the damaged volume to the volume of the total contralateral hemisphere with correction for hemispheric edema, according to the following formula: infarct (%)=[1−(volume of total ipsilateral hemisphere−volume of infarct)/volume of total contralateral hemisphere)]×100%.

[3] = as demonstrated in WO2018/189122; cited from earlier work

SMILES | permeability of 14C-sucrose through the BBB under inflammatory stress [1] | infarct area / infarct volume of the hemisphere ipsilateral to HI injury [2] | ability to cross the BBB [3]
CC[C@H](CO)Nc1nc(N(CC)Cc2ccccc2)c2ncn(C(C)C)c2n1 [Compound 13, (2R)-2-[[6-[benzyl(ethyl)amino]-9-isopropyl-purin-2-yl]amino]butan-1-ol] | statistically restored the permeability properties of the BBB | statistically reduced | –
CC[C@H](CO)Nc1nc(N(C)c2ccccc2)c2ncn(C(C)C)c2n1 [Aftin-5, (2R)-2-[[9-isopropyl-6-(N-methylanilino)purin-2-yl]amino]butan-1-ol] | statistically restored the permeability properties of the BBB | – | able to cross the BBB
